In patent US20040127566A1, “Retinoid hepatitis therapy” (priority 2004, published 2004):

Experiments:
hepatitis-C = assay: Free ATRA (oral) in a patient positive for hepatitis-C (Example 2)
hepatitis-A = assay: Free ATRA (oral) in a patient positive for hepatitis-A (Example 3)
[1] = blood, one month subsequent to the 3-week point
[2] = four months after beginning use of ATRA
[3] = one month subsequent to the 3-week point

`CC1=C(/C=C/C(C)=C/C=C/C(C)=C/C(=O)O)C(C)(C)CCC1` [free ATRA, all-trans retinoic acid] was tested, and the viral load (hepatitis-C; [1]) was under 11000 copies/ml, the PCR status (hepatitis-C; [2]) was “negative” and the “blood chemistry as to hepatitis C (SPGT and SGOT, bilirubin, alkaline phosphatase)” value (hepatitis-C; [3]) was “normal”. The viral load (hepatitis-A; [1]) was < 1,000 copies/ml, the PCR status (hepatitis-A; [2]) was “negative” and the “blood chemistry as to hepatitis A (SPGT and SGOT, bilirubin, alkaline phosphatase)” value (hepatitis-A; [3]) was “normal”.
